Where a SMILES comes first, the peptide text is derived from it. Bridges are numbered along the chain shown (N, C = ends).
Legend:
hα6/α3β4M160K = molecular target: T1, hα6/α3β4M160K (Homo sapiens, UniProt P30926+Q15825, M186K); assay type: cell-based
T1 construct: formed by splicing the N-terminal extracellular domain of the α6 subunit with the α3 subunit; human nAChR α3 subunit (CHRNA3); expressed in transfected cells; host or cells: Xenopus laevis oocytes injected with cRNA (plasmids from the University of Utah)

hα6/α3β4L107V = molecular target: T2, hα6/α3β4L107V (Homo sapiens, UniProt P30926+Q15825, L133V); assay: cell-based
T2 construct: splicing the N-terminal extracellular domain of the α6 subunit with the α3 subunit; mutant made by PCR mutagenesis; host or cells: Xenopus laevis oocytes injected with cRNA
T2 sequence (Q15825 26-239 limits assumed): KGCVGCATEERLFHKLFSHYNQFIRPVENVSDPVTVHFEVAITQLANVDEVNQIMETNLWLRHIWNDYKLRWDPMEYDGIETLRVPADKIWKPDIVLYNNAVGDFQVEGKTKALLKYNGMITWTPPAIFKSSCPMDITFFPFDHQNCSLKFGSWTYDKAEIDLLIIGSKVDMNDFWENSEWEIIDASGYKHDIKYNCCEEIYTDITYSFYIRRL
T2 sequence (P30926 22-498 L133V): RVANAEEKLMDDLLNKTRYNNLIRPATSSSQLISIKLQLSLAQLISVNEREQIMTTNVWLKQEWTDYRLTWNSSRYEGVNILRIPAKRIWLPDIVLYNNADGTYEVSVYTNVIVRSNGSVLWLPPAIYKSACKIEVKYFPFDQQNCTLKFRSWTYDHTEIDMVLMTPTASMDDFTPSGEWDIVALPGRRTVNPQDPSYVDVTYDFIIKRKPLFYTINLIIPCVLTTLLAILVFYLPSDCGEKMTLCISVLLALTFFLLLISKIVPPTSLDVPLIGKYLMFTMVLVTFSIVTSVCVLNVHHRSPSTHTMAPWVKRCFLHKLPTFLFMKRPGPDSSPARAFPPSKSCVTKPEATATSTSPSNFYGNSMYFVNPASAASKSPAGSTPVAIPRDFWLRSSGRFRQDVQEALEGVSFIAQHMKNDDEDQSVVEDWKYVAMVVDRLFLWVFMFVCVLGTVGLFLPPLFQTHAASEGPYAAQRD

h[α6V32L/α3]β4 [1] = assay: cell-based; parameters: species or system human
h[α6V32L/α3]β4 [2] = molecular target: T3, h[α6V32L/α3]β4 (Homo sapiens, UniProt P30926+P32297+Q15825, V65L); assay: cell-based
T3 construct: formed by splicing the N-terminal extracellular domain of the α6 subunit with the α3 subunit; human nAChR α3 subunit (CHRNA3); expressed in transfected cells; host or cells: Xenopus laevis oocytes injected with cRNA (plasmids from the University of Utah)
T3 sequence (Q15825+P32297 fused with the stated changes): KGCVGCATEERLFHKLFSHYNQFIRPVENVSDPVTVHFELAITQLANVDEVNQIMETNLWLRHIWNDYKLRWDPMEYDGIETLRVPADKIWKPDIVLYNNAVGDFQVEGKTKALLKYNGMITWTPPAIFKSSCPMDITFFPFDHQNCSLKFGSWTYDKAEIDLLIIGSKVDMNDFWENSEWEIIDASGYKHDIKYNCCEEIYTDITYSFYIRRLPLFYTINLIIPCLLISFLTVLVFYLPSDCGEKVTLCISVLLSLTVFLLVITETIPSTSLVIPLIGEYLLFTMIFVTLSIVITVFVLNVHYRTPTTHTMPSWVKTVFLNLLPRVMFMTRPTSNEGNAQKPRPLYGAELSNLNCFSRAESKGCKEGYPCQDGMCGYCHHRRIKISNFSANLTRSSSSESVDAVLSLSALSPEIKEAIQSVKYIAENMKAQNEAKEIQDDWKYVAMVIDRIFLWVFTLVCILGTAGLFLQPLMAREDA
T3 sequence (P30926 22-498): as the sequence (P30926 22-498 L133V) above, with V112L counted along it

h[α6K7T/α3]β4 = molecular target: T4, h[α6K7T/α3]β4 (Homo sapiens, UniProt P30926+P32297+Q15825, K40T); assay type: cell-based
T4 construct: formed by splicing the N-terminal extracellular domain of the α6 subunit with the α3 subunit; human nAChR α3 subunit (CHRNA3); expressed in transfected cells; host or cells: Xenopus laevis oocytes injected with cRNA (plasmids from the University of Utah)

hα6/α3β4R70C = molecular target: T5, hα6/α3β4R70C (Homo sapiens, UniProt P30926+Q15825, R96C); assay type: cell-based
T5 construct: splicing the N-terminal extracellular domain of the α6 subunit with the α3 subunit; mutant made by PCR mutagenesis; host or cells: Xenopus laevis oocytes injected with cRNA

hα6/α3β4V53I = molecular target: T6, hα6/α3β4V53I (Homo sapiens, UniProt P30926+Q15825, V79I); assay type: cell-based
T6 construct: splicing the N-terminal extracellular domain of the α6 subunit with the α3 subunit; mutant made by PCR mutagenesis; host or cells: Xenopus laevis oocytes injected with cRNA

h[α6K61R/α3]β4 = molecular target: T7, h[α6K61R/α3]β4 (Homo sapiens, UniProt P30926+P32297+Q15825, K94R); assay: cell-based
T7 construct: formed by splicing the N-terminal extracellular domain of the α6 subunit with the α3 subunit; human nAChR α3 subunit (CHRNA3); expressed in transfected cells; host or cells: Xenopus laevis oocytes injected with cRNA (plasmids from the University of Utah)
T7 sequence (Q15825+P32297 fused with the stated changes): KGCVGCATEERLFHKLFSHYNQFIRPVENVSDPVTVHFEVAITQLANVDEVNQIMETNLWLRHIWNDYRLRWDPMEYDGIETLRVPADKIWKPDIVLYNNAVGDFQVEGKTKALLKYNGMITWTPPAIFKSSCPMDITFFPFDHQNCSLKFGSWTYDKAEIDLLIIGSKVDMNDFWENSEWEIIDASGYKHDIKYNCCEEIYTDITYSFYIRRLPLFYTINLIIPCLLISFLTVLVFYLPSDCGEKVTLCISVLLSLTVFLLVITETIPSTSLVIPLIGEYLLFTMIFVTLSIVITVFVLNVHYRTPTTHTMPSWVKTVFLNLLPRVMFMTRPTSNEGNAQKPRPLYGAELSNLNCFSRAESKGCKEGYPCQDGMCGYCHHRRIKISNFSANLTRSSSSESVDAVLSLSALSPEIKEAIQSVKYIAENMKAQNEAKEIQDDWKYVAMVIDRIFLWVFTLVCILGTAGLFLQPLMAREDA
T7 sequence (P30926 22-498): as the sequence (P30926 22-498 L133V) above, with V112L counted along it

hα6/α3β4Y133H = molecular target: T8, hα6/α3β4Y133H (Homo sapiens, UniProt P30926+Q15825, Y159H); assay type: cell-based
T8 construct: splicing the N-terminal extracellular domain of the α6 subunit with the α3 subunit; mutant made by PCR mutagenesis; host or cells: Xenopus laevis oocytes injected with cRNA

h[α6M67T/α3]β4 [3] = assay type: cell-based, human
h[α6M67T/α3]β4 [4] = molecular target: T9, h[α6M67T/α3]β4 (Homo sapiens, UniProt P30926+P32297+Q15825, M100T); assay type: cell-based
T9 construct: formed by splicing the N-terminal extracellular domain of the α6 subunit with the α3 subunit; fusion partner: remainder of the human α3 subunit (CHRNA3); expressed in transfected cells; host or cells: Xenopus laevis oocytes injected with cRNA

h[α6I176V/α3]β4 = molecular target: T10, h[α6I176V/α3]β4 (Homo sapiens, UniProt P30926+P32297+Q15825, I209V); assay type: cell-based
T10 construct: formed by splicing the N-terminal extracellular domain of the α6 subunit with the α3 subunit; fusion partner: remainder of the human α3 subunit (CHRNA3); expressed in transfected cells; host or cells: Xenopus laevis oocytes injected with cRNA

h[α6R3Q/α3]β4 = molecular target: T11, h[α6R3Q/α3]β4 (Homo sapiens, UniProt P30926+P32297+Q15825, R36Q); assay type: cell-based
T11 construct: formed by splicing the N-terminal extracellular domain of the α6 subunit with the α3 subunit; human nAChR α3 subunit (CHRNA3); expressed in transfected cells; host or cells: Xenopus laevis oocytes injected with cRNA (plasmids from the University of Utah)

hα6/α3β4S165I = molecular target: T12, hα6/α3β4S165I (Homo sapiens, UniProt P30926+Q15825, S191I); assay type: cell-based
T12 construct: formed by splicing the N-terminal extracellular domain of the α6 subunit with the α3 subunit; human nAChR α3 subunit (CHRNA3); expressed in transfected cells; host or cells: Xenopus laevis oocytes injected with cRNA (plasmids from the University of Utah)

hα6/α3β4L107V, V115I = molecular target: T13, hα6/α3β4L107V, V115I (Homo sapiens, UniProt P30926+Q15825, L133V/V141I); assay: cell-based; assay type: cell-based
T13 construct: formed by splicing the N-terminal extracellular domain of the α6 subunit with the α3 subunit; fusion partner: remainder of the human α3 subunit (CHRNA3); expressed in transfected cells; host or cells: Xenopus laevis oocytes injected with cRNA
T13 sequence (Q15825 26-239 limits assumed): as the sequence (Q15825 26-239 limits assumed) above
T13 sequence (P30926 22-498 L133V/V141I): as the sequence (P30926 22-498 L133V) above, with V120I counted along it

rα6/α3β4 = molecular target: T14, rα6/α3β4 (Rattus norvegicus, UniProt P04757+P12392+P43143); assay type: cell-based
T14 construct: formed by splicing the N-terminal extracellular domain of the α6 subunit with the α3 subunit; fusion partner: remainder of the rat α3 subunit (Chrna3); expressed in transfected cells; host or cells: Xenopus laevis oocytes injected with cRNA

h[α6S10A/α3]β4 [5] = molecular target: T15, h[α6S10A/α3]β4 (Homo sapiens, UniProt P30926+P32297+Q15825, S43A); assay type: cell-based
T15 construct: formed by splicing the N-terminal extracellular domain of the α6 subunit with the α3 subunit; human nAChR α3 subunit (CHRNA3); expressed in transfected cells; host or cells: Xenopus laevis oocytes injected with cRNA (plasmids from the University of Utah)

h[α6S10A/α3]β4 [6] = assay type: cell-based, human
[7] = molecular target: T16, h[α6V32L, K61R/α3]β4L107V,V115I (Homo sapiens, UniProt P30926+P32297+Q15825, K94R/L133V/V141I/V65L); assay: cell-based
T16 construct: formed by splicing the N-terminal extracellular domain of the α6 subunit with the α3 subunit; fusion partner: remainder of the human α3 subunit (CHRNA3); expressed in transfected cells; host or cells: Xenopus laevis oocytes injected with cRNA
T16 sequence (Q15825+P32297 fused with the stated changes): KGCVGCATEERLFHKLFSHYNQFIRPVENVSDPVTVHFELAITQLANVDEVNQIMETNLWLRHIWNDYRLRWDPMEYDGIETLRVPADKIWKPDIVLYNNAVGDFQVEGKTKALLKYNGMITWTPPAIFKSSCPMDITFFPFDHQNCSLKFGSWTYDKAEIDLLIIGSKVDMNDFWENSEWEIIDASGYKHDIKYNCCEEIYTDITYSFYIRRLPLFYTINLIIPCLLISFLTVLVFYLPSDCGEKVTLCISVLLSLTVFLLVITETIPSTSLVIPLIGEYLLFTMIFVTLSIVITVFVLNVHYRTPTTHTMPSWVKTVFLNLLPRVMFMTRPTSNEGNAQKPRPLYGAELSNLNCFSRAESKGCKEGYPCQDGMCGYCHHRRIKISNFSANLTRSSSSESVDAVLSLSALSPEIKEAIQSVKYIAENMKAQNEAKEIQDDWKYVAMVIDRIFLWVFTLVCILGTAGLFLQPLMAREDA
T16 sequence (P30926 22-498 L133V/V141I): as the sequence (P30926 22-498 L133V) above, with V120I counted along it

hα6/α3β4I84V = molecular target: T17, hα6/α3β4I84V (Homo sapiens, UniProt P30926+Q15825, I110V); assay type: cell-based
T17 construct: splicing the N-terminal extracellular domain of the α6 subunit with the α3 subunit; mutant made by PCR mutagenesis; host or cells: Xenopus laevis oocytes injected with cRNA
T17 sequence (Q15825 26-239 limits assumed): as the sequence (Q15825 26-239 limits assumed) above
T17 sequence (P30926 22-498 I110V): as the sequence (P30926 22-498 L133V) above, with I89V, V112L counted along it

[8] = read-out: inhibition of the current response to 100 μM ACh

CC(C)C[C@@H]1NC(=O)[C@H](CC(=O)O)NC(=O)[C@@H]2CCCN2C(=O)[C@H](Cc2c[nH]cn2)NC(=O)[C@H](CCCCN)NC(=O)[C@H](CC(N)=O)NC(=O)[C@H](CCCNC(=N)N)NC(=O)[C@@H]2CSSC[C@H](NC(=O)CN)C(=O)N[C@@H](CSSC[C@@H](C(N)=O)NC1=O)C(=O)N[C@@H](CO)C(=O)N[C@@H](CC(=O)O)C(=O)N1CCC[C@H]1C(=O)N1CCC[C@H]1C(=O)N2 [TxIB] (H-GCCSDPPCRNKHPDLC-NH2; disulfide 2-8, 3-16)
Hill Slope (hα6/α3β4M160K): 0.9 (0.7–1.1) | Ratio (change in TxIB IC50 relative to hα6/α3β4) (hα6/α3β4M160K): 1.5 | Hill Slope (hα6/α3β4L107V): 0.8 (0.7–0.9) | Ratio (change in TxIB IC50 relative to hα6/α3β4) (hα6/α3β4L107V): 3.3 | activity at 10 µM (hα6/α3β4L107V; [8]): 21.7 ± 4.29% | Ratio (change in TxIB IC50 relative to hα6/α3β4) (h[α6V32L/α3]β4 [1]): 4.2 | Hill Slope (h[α6V32L/α3]β4 [2]): 0.7 (0.7–0.8) | activity at 10 µM (h[α6V32L/α3]β4 [2]; [8]): 25.3 ± 5.23% | Hill Slope (h[α6K7T/α3]β4): 0.8 (0.6–0.9) | Ratio (change in TxIB IC50 relative to hα6/α3β4) (h[α6K7T/α3]β4): 1.4 | Hill Slope (hα6/α3β4R70C): 0.8 (0.7–1.0) | Ratio (change in TxIB IC50 relative to hα6/α3β4) (hα6/α3β4R70C): 0.9 | Hill Slope (hα6/α3β4V53I): 0.8 (0.7–0.9) | Ratio (change in TxIB IC50 relative to hα6/α3β4) (hα6/α3β4V53I): 1.1 | Hill Slope (h[α6K61R/α3]β4): 0.8 (0.7–0.9) | Ratio (change in TxIB IC50 relative to hα6/α3β4) (h[α6K61R/α3]β4): 3.4 | activity at 10 µM (h[α6K61R/α3]β4; [8]): 22.1 ± 4.7% | Hill Slope (hα6/α3β4Y133H): 0.8 (0.7–1.0) | Ratio (change in TxIB IC50 relative to hα6/α3β4) (hα6/α3β4Y133H): 1.3 | Ratio (change in TxIB IC50 relative to hα6/α3β4) (h[α6M67T/α3]β4 [3]): 1.1 | Hill Slope (h[α6M67T/α3]β4 [4]): 0.9 (0.7–1.0) | Hill Slope (h[α6I176V/α3]β4): 0.8 (0.7–0.9) | Ratio (change in TxIB IC50 relative to hα6/α3β4) (h[α6I176V/α3]β4): 0.8 | Hill Slope (h[α6R3Q/α3]β4): 0.9 (0.8–1.1) | Ratio (change in TxIB IC50 relative to hα6/α3β4) (h[α6R3Q/α3]β4): 0.9 | Hill Slope (hα6/α3β4S165I): 0.7 (0.6–0.9) | Ratio (change in TxIB IC50 relative to hα6/α3β4) (hα6/α3β4S165I): 1 | Hill Slope (hα6/α3β4L107V, V115I): 0.8 (0.8–0.9) | Ratio (change in TxIB IC50 relative to hα6/α3β4) (hα6/α3β4L107V, V115I): 4.9 | time to full restoration of currents blocked by TxIB (hα6/α3β4L107V, V115I): ≤ 1 min | activity at 10 µM (hα6/α3β4L107V, V115I; [8]): 25.1 ± 11.2% | blocking effect (rα6/α3β4): almost no blocking effect | Hill Slope (h[α6S10A/α3]β4 [5]): 0.8 (0.7–0.9) | Ratio (change in TxIB IC50 relative to hα6/α3β4) (h[α6S10A/α3]β4 [6]): 1.2 | Hill Slope [7]: 0.8 (0.6–0.9) | Ratio (change in TxIB IC50 relative to hα6/α3β4) [7]: 42 | time to full restoration of currents blocked by TxIB [7]: ≤ 1 min | activity at 10 µM [7, 8]: 60.2 ± 8.66% | Hill Slope (hα6/α3β4I84V): 0.8 (0.8–0.9) | Ratio (change in TxIB IC50 relative to hα6/α3β4) (hα6/α3β4I84V): 1.4
